Data set [1] in a line: Assay for plasma protein binding rate (equilibrium dialysis), dog plasma. It is filed as in vitro ADME. To be noted: dialysis 6 h at 37 °C, read-out: Dog (Fu%). The method, then: 1.1 Preparation of compounds: The compounds prepared in the examples were each dissolved in dimethylsulfoxide to give solutions at a concentration of 10 mmol/L. • 1) The example compounds were each diluted from 10 mmol/L stock solution to 0.2 mmol/L, i.e., 1 µL of the compound was added to 49 µL of DMSO; • 2) 3 µL of 0.2 mmol/L test compounds were added to 597 µL of blood plasma, and the mixtures were vortexed at 1000 rpm for 2 min; • 3) 50 µL of the plasma containing the drug in 2) was taken, 50 µL of PBS was added, and 300 µL of methanol internal standard* was added to serve as a sample T0; • 4) 120 µL of the plasma containing the drug in 2) was taken and added to one side of an HTD device membrane, and 120 µL of PBS was added to the other side of the membrane; a breathable film was covered, and the plasma and the residual sample in 2) were balanced at 37 °C (100 rpm and 5% CO2) for 6 h; • 5) 50 µL of the dialyzed plasma side sample was taken, 50 µL of PBS was added, and 300 µL of methanol internal standard* was added to serve as a sample P; • 6) 50 µL of the dialyzed PBS side sample was taken, 50 µL of blank plasma was added, and 300 µL of methanol internal standard* was added to serve as a sample B; • 7) 50 µL of the plasma containing the drug in 2) was taken, 50 µL of PBS was added, and 300 µL of methanol internal standard* was added to serve as a sample T6; • 8) All samples were vortexed, mixed homogeneously, and then centrifuged at 3220 g for 40 min at 4 °C; • 9) 100 µL of the supernatant and 100 µL of purified water were mixed homogenously for liquid chromatography-mass spectrometry.
An internal standard method was used, and the plasma protein binding rate, recovery rate, and residual percentage were calculated by using Excel according to the ratio of the peak area of the sample to the peak area of the internal standard. Free rate(%) = (RatioB)/(RatioP) × 100% [formula] Binding rate(%) = 100%−Free rate% [formula] Recovery rate(%) = (RatioB + RatioP)/(RatioT0) × 100% [formula] Remaining percentage(%) = (RatioT6)/(RatioT0) × 100% [formula]
RatioB: a ratio of the peak area of the test substance on the PBS side to the peak area of the internal standard; RatioP: a ratio of the peak area of the test substance on the plasma side to the peak area of the internal standard; RatioT6: a ratio of the peak area of the sample after incubation with the test substance for 6 h to the peak area of the internal standard; RatioT0: a ratio of the peak area of the sample after incubation with the test substance for 0 h to the peak area of the internal standard. Table 8. Plasma protein binding rate (Fu%) data for various species of example compounds
A general note: Equilibrium dialysis compares concentrations on both sides of a semipermeable membrane.

The next data set addresses T1, CYP2C8 (Homo sapiens, UniProt P10632).
T1 construct: from tissue; host or cells: human liver microsomes
T1 sequence (P10632 1-490): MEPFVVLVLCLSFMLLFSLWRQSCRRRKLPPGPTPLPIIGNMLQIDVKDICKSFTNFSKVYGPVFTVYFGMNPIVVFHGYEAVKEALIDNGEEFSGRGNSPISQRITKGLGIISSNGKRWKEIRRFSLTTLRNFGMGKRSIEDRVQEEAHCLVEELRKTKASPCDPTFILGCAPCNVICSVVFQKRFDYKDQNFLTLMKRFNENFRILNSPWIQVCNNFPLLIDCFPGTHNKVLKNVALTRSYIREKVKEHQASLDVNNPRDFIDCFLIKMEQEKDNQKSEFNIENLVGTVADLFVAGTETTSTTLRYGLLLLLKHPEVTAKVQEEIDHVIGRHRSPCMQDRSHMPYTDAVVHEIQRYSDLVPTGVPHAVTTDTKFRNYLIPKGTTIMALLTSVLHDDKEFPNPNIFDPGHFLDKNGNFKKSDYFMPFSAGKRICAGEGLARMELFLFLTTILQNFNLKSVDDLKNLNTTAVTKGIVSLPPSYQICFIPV
Kind of data set: Inhibitory effect on P450 enzymes in vitro (human liver microsomes), CYP2C8. It is filed as in vitro ADME. To be noted: probe paclitaxel, final concentration 10 µM, substrate paclitaxel, read-out: % inhibition rate CYP2C8 (paclitaxel). As to the method: 1.1 Preparation of compounds: The compounds prepared in the examples were each dissolved in dimethylsulfoxide to give solutions at a concentration of 2 mmol/L.
1.2 Test methods: • 1) Incubation system: human liver microsomes, a MgCl2 solution, a phosphate buffer solution, and a substrate solution were each added a 96-well deep-well plate and mixed homogenously. In the final incubation system, the concentration of the human liver microsomes was 0.2 mg/mL, and the final concentrations of the MgCl2 solution and the phosphate buffer solution were 5 mM and 100 mM, respectively. • 2) 1 µL of the substrate solution was added to the incubation system, and the final concentrations of CYP1A2 phenacetin, 2C8 paclitaxel […], 2C19 mephenytoin, 2D6 midazolam, and 3A midazolam substrates were 40 µM (phenacetin), 5 µM (paclitaxel), 50 µM (mephenytoin), 10 µM (mephenytoin), 5 µM (midazolam), and 50 µM […], respectively. • 3) 1 µL of the example compound or vehicle (DMSO) was added to the incubation system, and the incubation system was pre-warmed for 5 min in a 37 °C water bath before starting the reaction with 20 µL of 10 mM NADPH solution.
1.3 Sample treatment: Within the designated time (20 min for phenacetin, 10 min for paclitaxel, 20 min for mephenytoin, 20 min for dextromethorphan, 5 min for midazolam, and 10 min for testosterone), 400 µL of methanol containing the internal standard was added to terminate the reaction, and the mixture was vortexed and mixed homogeneously. Then, the deep-well plate was centrifuged at 3220 g and 4 °C for 40 min. 100 µL of the supernatant was transferred into a new plate, and 150 µL of purified water was added. The mixture was mixed homogenously for LC-MS/MS analysis. Table 11. Inhibitory effects of some compounds in the examples on CYP enzymes
Background: Microsomes from liver hold many membrane-bound enzymes, among them those of drug oxidation.

The values below come from patent EP4692094A1 (Beijing Konruns Pharmaceutical Co., Ltd., priority 2023, dated 2024).

A word on the inhibition: it is the relative decrease from the control value, in per cent.

Take `COc1cc2c(cc1S(=O)(=O)Nc1noc3cc(Cn4cccn4)nc(OC)c13)CCCO2` [Example 76, N-(6-((1H-Pyrazol-1-yl)methyl)-4-methoxyisoxazolo[4,5-c]pyridin-3-yl)-7-methoxy-3,4-dihydro-1H-benzopyran-6-sulfonamide]: the fraction unbound at 6 h, 1 µM in data set [1] was 0.0065.
Take `COc1cc2c(cc1S(=O)(=O)Nc1noc3cc(Cn4cccn4)nc(OC)c13)OCC2` [Example 59, N-(6-((1H-Pyrazol-1-yl)methyl)-4-methoxyisoxazolo[4,5-c]pyridin-3-yl)-5-methoxy-2,3-dihydrobenzofuran-6-sulfonamide]: the fraction unbound at 6 h, 1 µM in data set [1] amounted to 0.0143. The inhibition at 10 min, 10 µM on CYP2C8 was 2.08%.
Consider `COc1cc2c(cc1S(=O)(=O)Nc1noc3cc(Cn4cccn4)nc(OC)c13)CCCC2` [Example 2, N-(6-((1H-Pyrazol-1-yl)methyl)-4-methoxyisoxazolo[4,5-c]pyridin-3-yl)-3-methoxy-5,6,7,8-tetrahydronaphthalene-2-sulfonamide], for which the fraction unbound at 6 h, 1 µM in data set [1] is 0.0013. In addition, at CYP2C8, the inhibition at 10 min, 10 µM worked out at 16.4%.
Consider `COc1ccc2ccoc2c1S(=O)(=O)Nc1noc2cc(Cn3cccn3)nc(OC)c12` [Example 10, N-(6-((1H-Pyrazol-1-yl)methyl)-4-methoxyisoxazolo[4,5-c]pyridin-3-yl)-6-methoxybenzofuran-7-sulfonamide], for which the fraction unbound at 6 h, 1 µM in data set [1] came to 0.0145. On CYP2C8, the inhibition at 10 min, 10 µM is 3.71%.
Regarding `COc1ccc2c(c1S(=O)(=O)Nc1noc3cc(Cn4cccn4)nc(OC)c13)OCC2` [Example 9, N-(6-((1H-Pyrazol-1-yl)methyl)-4-methoxyisoxazolo[4,5-c]pyridin-3-yl)-6-methoxy-2,3-dihydrobenzofuran-7-sulfonamide], the fraction unbound at 6 h, 1 µM in data set [1] worked out at 0.025.
